Measured values published in US20230097157A1, “Bicyclic Pyridin-2-one and pyrimidin-4-one Derivatives Useful As a Factor XIa Inhibitors” (Janssen Pharmaceutica NV, priority 2021, published 2023).
Read-outs that look alike come from different tables or passages of the source.

Columns and labels:
[1] = biological target: human plasma kallikrein (Homo sapiens, UniProt P03952); assay: Kallikrein inhibition assay (FLINT) utilizing a quenched AMC peptide substrate Z-Gly-Pro-Arg-AMC; type: biochemical; conditions: kinetic (KIN) reads, read-out: Kallikrein KIN Inh IC50
Procedure, shortened: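 IC50 from a 4-parameter logistic fit of % inhibition from 11 concentrations (3-fold, top 1 μM, 2% DMSO). Compound pre-incubated 30 min with 2 nM enzyme in Tris pH 7.5, NaCl, CaCl2, BSA, CHAPS, then 50 μM AMC peptide substrate added. Fluorescence (340/440 nm) followed every 5 min for 30 min at room temperature.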

[2] = biological target: Factor XIa (Homo sapiens, UniProt P03951); assay: Factor XIa inhibition assay (FLINT) utilizing a fluorophore-quencher pair peptide substrate 5Fam-[…]-K5Tamra; type: biochemical; conditions: kinetic (KIN) reads, read-out: FXIa KIN Inh IC50
Procedure, shortened: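 Compounds were tested as 11-point 3-fold dilutions from 100 nM (2% DMSO). They were preincubated 30 min with FXIa in 50 mM Tris pH 7.5, 5 mM CaCl2, then 15 μM fluorophore-quencher peptide was added. Cleavage was followed at 485/520 nm over 30 min, and IC50 was derived by 4-parameter logistic fit.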

Factor XIa, sequence (P03951 388-625 limits assumed): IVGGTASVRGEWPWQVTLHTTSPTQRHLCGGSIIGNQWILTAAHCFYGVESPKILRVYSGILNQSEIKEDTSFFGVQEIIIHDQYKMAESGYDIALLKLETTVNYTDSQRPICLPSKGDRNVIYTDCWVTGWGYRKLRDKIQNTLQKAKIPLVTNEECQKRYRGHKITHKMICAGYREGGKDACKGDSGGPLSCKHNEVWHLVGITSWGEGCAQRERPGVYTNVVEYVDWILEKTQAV
Factor XIa, sequence (P03951 19-387 partner limits assumed): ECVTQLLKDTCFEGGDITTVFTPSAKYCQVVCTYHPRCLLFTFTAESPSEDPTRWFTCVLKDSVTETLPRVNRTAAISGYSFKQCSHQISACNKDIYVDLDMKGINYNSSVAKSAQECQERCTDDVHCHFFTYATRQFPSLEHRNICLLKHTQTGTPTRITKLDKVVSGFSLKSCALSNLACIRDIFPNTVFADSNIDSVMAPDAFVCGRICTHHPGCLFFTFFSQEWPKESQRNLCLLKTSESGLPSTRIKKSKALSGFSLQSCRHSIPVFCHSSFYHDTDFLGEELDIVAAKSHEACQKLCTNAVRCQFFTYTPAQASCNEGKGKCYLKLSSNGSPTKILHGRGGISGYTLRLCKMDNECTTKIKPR
human plasma kallikrein, sequence (P03952 391-638 limits assumed): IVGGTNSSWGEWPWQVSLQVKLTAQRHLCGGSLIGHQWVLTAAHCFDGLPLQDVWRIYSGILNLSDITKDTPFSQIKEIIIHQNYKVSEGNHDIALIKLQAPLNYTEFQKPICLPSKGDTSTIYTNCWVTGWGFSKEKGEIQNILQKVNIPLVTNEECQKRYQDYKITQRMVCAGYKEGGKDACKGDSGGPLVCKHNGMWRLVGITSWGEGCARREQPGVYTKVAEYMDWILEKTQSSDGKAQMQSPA
human plasma kallikrein, sequence (P03952 20-390 partner limits assumed): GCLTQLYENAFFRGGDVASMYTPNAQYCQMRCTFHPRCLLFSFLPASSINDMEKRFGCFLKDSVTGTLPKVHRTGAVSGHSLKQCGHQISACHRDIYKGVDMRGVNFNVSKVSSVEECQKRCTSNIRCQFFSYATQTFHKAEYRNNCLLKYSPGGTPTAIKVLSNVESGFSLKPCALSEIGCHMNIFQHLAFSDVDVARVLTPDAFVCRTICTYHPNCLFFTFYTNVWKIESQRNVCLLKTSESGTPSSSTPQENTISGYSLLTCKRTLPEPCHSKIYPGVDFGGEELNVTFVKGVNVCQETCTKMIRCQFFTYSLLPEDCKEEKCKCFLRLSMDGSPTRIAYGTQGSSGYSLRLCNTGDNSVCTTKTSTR

IC50 ([1]; values in nM)	IC50 ([2]; values in nM)	IC50 ([1]; unit μM)	IC50 ([2]; unit μM)	SMILES
–	90.3 nM	7100 nM	–	C[C@@H]1C[C@H](c2ncc(-c3cn[nH]c3)[nH]2)n2c1nc(-c1c(-n3cnnn3)ccc(Cl)c1F)cc2=O (stereo in doubt) [Example 108, (6*R,8*R)-6-(5-(1H-Pyrazol-4-yl)-1H-imidazol-2-yl)-2-(3-chloro-2-fluoro-6-(1H-tetrazol-1-yl)phenyl)-8-methyl-7,8-dihydropyrrolo[1,2-a]pyrimidin-4(6H)-one]
–	–	> 10000 nM	> 10000 nM	C[C@@H]1C[C@H](c2ncc(-c3cnns3)[nH]2)n2c1nc(-c1c(-n3cnnn3)ccc(Cl)c1F)cc2=O (relative stereo) [Example 105, (6*R,8*R)-6-(5-(1,2,3-Thiadiazol-5-yl)-1H-imidazol-2-yl)-2-(3-chloro-2-fluoro-6-(1H-tetrazol-1-yl)phenyl)-8-methyl-7,8-dihydropyrrolo[1,2-a]pyrimidin-4(6H)-one]
–	933 nM	6400 nM	–	C[C@H]1C[C@H](c2ncc(-c3cnns3)[nH]2)n2c1nc(-c1c(-n3cnnn3)ccc(Cl)c1F)cc2=O (relative stereo) [Example 106, (6*R,8*S)-6-(5-(1,2,3-Thiadiazol-5-yl)-1H-imidazol-2-yl)-2-(3-chloro-2-fluoro-6-(1H-tetrazol-1-yl)phenyl)-8-methyl-7,8-dihydropyrrolo[1,2-a]pyrimidin-4(6H)-one]
151 nM	63.4 nM	–	–	COc1nccc(-c2cnc([C@@H]3C[C@H](C)c4nc(-c5c(-n6cnnn6)ccc(Cl)c5F)cc(=O)n43)[nH]2)n1 (relative stereo) [Example 103, (6S,8S)-2-(3-chloro-2-fluoro-6-(1H-tetrazol-1-yl)phenyl)-6-(5-(2-methoxypyrimidin-4-yl)-1H-imidazol-2-yl)-8-methyl-7,8-dihydropyrrolo[1,2-a]pyrimidin-4(6H)-one]
71.7 nM	5.3 nM	–	–	Cc1nc(N)cnc1-c1cnc([C@@H]2CC(C)c3nc(-c4c(-n5cnnn5)ccc(Cl)c4F)cc(=O)n32)[nH]1 (stereo partly drawn) [Example 95, (6S)-6-(5-(5-Amino-3-methylpyrazin-2-yl)-1H-imidazol-2-yl)-2-(3-chloro-2-fluoro-6-(1H-tetrazol-1-yl)phenyl)-8-methyl-7,8-dihydropyrrolo[1,2-a]pyrimidin-4(6H)-one]
11.2 nM	12.8 nM	–	–	C[C@@H]1C[C@H](c2ncc(-c3ccc(NC(=O)C4CC4)nc3)[nH]2)n2c1nc(-c1c(-n3cnnn3)ccc(Cl)c1F)cc2=O (stereo in doubt) [Example 120, N-(5-(2-((6*R,8*R)-2-(3-Chloro-2-fluoro-6-(1H-tetrazol-1-yl)phenyl)-8-methyl-4-oxo-4,6,7,8-tetrahydropyrrolo[1,2-a]pyrimidin-6-yl)-1H-imidazol-5-yl)pyridin-2-yl)cyclopropanecarboxamide]
298 nM	21.4 nM	–	–	C[C@H]1C[C@H](c2ncc(-c3ncc(N)nc3C3CC3)[nH]2)n2c1nc(-c1c(-n3cnnn3)ccc(Cl)c1F)cc2=O (relative stereo) [Example 90, (6*R,8*S)-6-(5-(5-Amino-3-cyclopropylpyrazin-2-yl)-1H-imidazol-2-yl)-2-(3-chloro-2-fluoro-6-(1H-tetrazol-1-yl)phenyl)-8-methyl-7,8-dihydropyrrolo[1,2-a]pyrimidin-4(6H)-one]
377 nM	56.2 nM	–	–	C[C@H]1C[C@@H](c2ncc(-c3ncc(N)nc3C(F)(F)F)[nH]2)n2c1nc(-c1c(-n3cnnn3)ccc(Cl)c1F)cc2=O (relative stereo) [Example 83, (6*S,8*S)-6-(5-(5-Amino-3-(trifluoromethyl)pyrazin-2-yl)-1H-imidazol-2-yl)-2-(3-chloro-2-fluoro-6-(1H-tetrazol-1-yl)phenyl)-8-methyl-7,8-dihydropyrrolo[1,2-a]pyrimidin-4(6H)-one]
95.9 nM	2.4 nM	–	–	C[C@H]1C[C@@H](c2ncc(-c3cn[nH]c3)[nH]2)n2c1nc(-c1c(-n3cnnn3)ccc(Cl)c1F)cc2=O (stereo in doubt) [Example 107, (6*S,8*S)-6-(5-(1H-Pyrazol-4-yl)-1H-imidazol-2-yl)-2-(3-chloro-2-fluoro-6-(1H-tetrazol-1-yl)phenyl)-8-methyl-7,8-dihydropyrrolo[1,2-a]pyrimidin-4(6H)-one]
12 nM	1.2 nM	–	–	C[C@@H]1C[C@H](c2nc(-c3ncc(N)nc3Cl)c[nH]2)n2c1nc(-c1c(-n3cnnn3)ccc(Cl)c1F)cc2=O (single isomer, unassigned) [Example 94, (6*R,8R)-6-(4-(5-Amino-3-chloropyrazin-2-yl)-1H-imidazol-2-yl)-2-(3-chloro-2-fluoro-6-(1H-tetrazol-1-yl)phenyl)-8-methyl-7,8-dihydropyrrolo[1,2-a]pyrimidin-4(6H)-one]

Second part, the molecule before the results:

SMILES	IC50 ([1]; values in nM)	IC50 ([2]; values in nM)	IC50 ([1]; unit μM)	IC50 ([2]; unit μM)
[2H]C([2H])([2H])OC(=O)Nc1ccc(-c2cnc(C3CC4(CC4)c4nc(-c5c(-n6cnnn6)ccc(Cl)c5F)cc(=O)n43)[nH]2)cc1 (single isomer, unassigned) [Example 72, Methyl-d3 (S*)-(4-(2-(2′-(3-Chloro-2-fluoro-6-(1H-tetrazol-1-yl)phenyl)-4′-oxo-6′,7′-dihydro-4′H-spiro[cyclopropane-1,8′-pyrrolo[1,2-a]pyrimidin]-6′-yl)-1H-imidazol-5-yl)phenyl)carbamate]	3.3 nM	0.6 nM	–	–
C[C@H]1C[C@@H](c2ncc(-c3sc(N)nc3C(F)(F)F)[nH]2)n2c1cc(-c1c(-n3cnnn3)ccc(Cl)c1F)cc2=O [Example 27, (1S,3S)-3-(5-(2-Amino-4-(trifluoromethyl)thiazol-5-yl)-1H-imidazol-2-yl)-7-(3-chloro-2-fluoro-6-(1H-tetrazol-1-yl)phenyl)-1-methyl-2,3-dihydroindolizin-5(1H)-one]	–	483 nM	2400 nM	–
C[C@H]1C[C@@H](c2ncc(-c3ccc4nn(C)cc4c3)[nH]2)n2c1cc(-c1c(-n3cnnn3)ccc(Cl)c1F)cc2=O (stereo in doubt) [Example 46, (1*S,3*S)-7-(3-Chloro-2-fluoro-6-(1H-tetrazol-1-yl)phenyl)-1-methyl-3-(5-(2-methyl-2H-indazol-5-yl)-1H-imidazol-2-yl)-2,3-dihydroindolizin-5(1H)-one]	488 nM	431 nM	–	–
O=c1cc(-c2c(-n3cnnn3)ccc(Cl)c2F)cc2n1[C@@H](c1ncc(-c3ccnc(CO)c3F)[nH]1)CC21CC1 (single isomer, unassigned) [Example 8]	–	> 100 nM	> 1000 nM	–
Nc1ccc(-c2cnc([C@H]3CC4(CC4)c4cc(-c5c(-n6cnnn6)ccc(Cl)c5F)cc(=O)n43)[nH]2)c(F)n1 [Example 24, (R)-3′-(5-(6-Amino-2-fluoropyridin-3-yl)-1H-imidazol-2-yl)-7′-(3-chloro-2-fluoro-6-(1H-tetrazol-1-yl)phenyl)-2′,3′-dihydro-5′H-spiro[cyclopropane-1,1′-indolizin]-5′-one]	–	–	> 10000 nM	1100 nM
C[C@@H]1C[C@H](c2ncc(-c3ccc4nn(C)cc4c3)[nH]2)n2c1cc(-c1c(-n3cnnn3)ccc(Cl)c1F)cc2=O (stereo in doubt) [Example 47, (1*R,3*R)-7-(3-Chloro-2-fluoro-6-(1H-tetrazol-1-yl)phenyl)-1-methyl-3-(5-(2-methyl-2H-indazol-5-yl)-1H-imidazol-2-yl)-2,3-dihydroindolizin-5(1H)-one]	21.7 nM	23.7 nM	–	–
C[C@H]1C[C@@H](c2ncc(-c3ccc(NS(C)(=O)=O)cc3)[nH]2)n2c1cc(-c1c(-n3cnnn3)ccc(Cl)c1F)cc2=O [Example 11, N-(4-(2-((1S,3S)-7-(3-chloro-2-fluoro-6-(1H-tetrazol-1-yl)phenyl)-1-methyl-5-oxo-1,2,3,5-tetrahydroindolizin-3-yl)-1H-imidazol-5-yl)phenyl)methanesulfonamide]	11.4 nM	2.2 nM	–	–
C[C@H]1C[C@@H](c2ncc(-c3ccn4nccc4c3)[nH]2)n2c1cc(-c1c(-n3cnnn3)ccc(Cl)c1F)cc2=O (stereo in doubt) [Example 53, (1*S,3*S)-7-(3-Chloro-2-fluoro-6-(1H-tetrazol-1-yl)phenyl)-1-methyl-3-(5-(pyrazolo[1,5-a]pyridin-5-yl)-1H-imidazol-2-yl)-2,3-dihydroindolizin-5(1H)-one]	54 nM	43.7 nM	–	–
[2H]C([2H])([2H])OC(=O)Nc1ccc(-c2cnc(C3CC4(CC4)c4nc(-c5c(-n6cnnn6)ccc(Cl)c5F)cc(=O)n43)[nH]2)cc1 (single isomer, unassigned) [Example 71, Methyl-d3 (R*)-(4-(2-(2′-(3-Chloro-2-fluoro-6-(1H-tetrazol-1-yl)phenyl)-4′-oxo-6′,7′-dihydro-4′H-spiro[cyclopropane-1,8′-pyrrolo[1,2-a]pyrimidin]-6′-yl)-1H-imidazol-5-yl)phenyl)carbamate]	736 nM	> 100 nM	–	–
Nc1ccc(-c2cnc(C3CCCCc4cc(-c5c(-n6cnnn6)ccc(Cl)c5F)cc(=O)n43)[nH]2)c(F)n1 (stereo not drawn) [Cmpd (IV), 6-(5-(6-amino-2-fluoropyridin-3-yl)-1H-imidazol-2-yl)-2-(3-chloro-2-fluoro-6-(1H-tetrazol-1-yl)phenyl)-7,8,9,10-tetrahydropyrido[1,2-a]azepin-4(6H)-one]	160 nM	48 nM	–	–
C[C@@H]1C[C@H](c2cnc(-c3ccc(N)nc3F)[nH]2)n2c1cc(-c1c(-n3cnnn3)ccc(Cl)c1F)cc2=O (stereo in doubt) [Example 55, (1R*,3R*)-3-(2-(6-Amino-2-fluoropyridin-3-yl)-1H-imidazol-5-yl)-7-(3-chloro-2-fluoro-6-(1H-tetrazol-1-yl)phenyl)-1-methyl-2,3-dihydroindolizin-5(1H)-one]	42.5 nM	1.1 nM	–	–
